Where two headings read alike, the source gives them in different places.
How the values were obtained:
[1] = biological target: T1, STAT3 (Homo sapiens, UniProt P40763); assay: STAT3 Fluorescence Polarization (FP) Assay; type: binding
T1 construct: Recombinant STAT3 protein (STAT3(G127-1722))

[2] = biological target: T2, STAT6 (Homo sapiens, UniProt P42226); assay: STAT6 Fluorescence Polarization (FP) Assay; type: binding
T2 construct: Recombinant STAT6 protein (STAT6(W123-T658))
T2 sequence (P42226 123-658): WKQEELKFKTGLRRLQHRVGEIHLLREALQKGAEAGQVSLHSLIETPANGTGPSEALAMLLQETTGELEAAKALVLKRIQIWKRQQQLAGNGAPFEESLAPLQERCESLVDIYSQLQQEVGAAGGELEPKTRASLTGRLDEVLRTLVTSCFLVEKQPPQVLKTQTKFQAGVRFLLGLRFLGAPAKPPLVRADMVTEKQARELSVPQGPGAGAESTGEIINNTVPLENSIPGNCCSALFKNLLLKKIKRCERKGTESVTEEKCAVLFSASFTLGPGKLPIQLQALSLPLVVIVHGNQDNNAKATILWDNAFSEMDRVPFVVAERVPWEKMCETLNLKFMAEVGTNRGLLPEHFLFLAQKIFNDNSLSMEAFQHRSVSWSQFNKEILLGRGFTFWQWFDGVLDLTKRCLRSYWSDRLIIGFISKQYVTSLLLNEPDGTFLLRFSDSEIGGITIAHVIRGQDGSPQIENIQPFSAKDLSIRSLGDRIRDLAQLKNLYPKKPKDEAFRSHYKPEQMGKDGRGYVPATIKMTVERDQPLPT
Summary of the method: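 STAT6(W123-T658) at 250 nM plus 2 nM 5-FAM phosphotyrosine peptide probe in HEPES pH 7.4 buffer with 2 mM DTT, 1% DMSO final. Polarization read after 45 min at room temperature. IC50 from nonlinear regression of mP against log concentration.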

[3] = biological target: T3, pSTAT3 (Homo sapiens, UniProt P40763); assay: MSD-pSTAT-PBMC Assay, pSTAT3 (IL-6 stimulated PBMC); type: cell-based
T3 construct: pY705-STAT3 MSD read-out
Excerpt: Cryopreserved Peripheral Blood Mononuclear Cells (PBMC) are from AllCells. Recombinant Human IL-4 and IL-6 are from Peprotech. Mouse monoclonal anti-STAT3 antibody, rabbit monoclonal anti-pY705-STAT3 antibody, rabbit monoclonal Anti-pY641-STAT6 antibody, and lysis buffer are from Cell Signaling Technology (CST). Mouse monoclonal anti-STAT6 antibody is from BioLegend. Assay plates, blocker, and anti-rabbit secondary antibody are from Meso Scale Discovery (MSD).
Cryopreserved PBMCs were thawed out and allowed to recover overnight in IMDM+10% heat-inactivated FBS prior to plating 50,000 (STAT3) or 25,000 (STAT6) cells per well in 96-well U-bottom tissue culture plates. Cells were treated with compound for 3 hrs. then stimulated with 10 ng/mL IL-6 (STAT3) or 1 ng/mL IL-4 (STAT6) for 10 min. Cells were then spun down and washed with ice-cold PBS prior to lysing the cell pellet with 1× lysis buffer (CST) with 1×HALT protease and phosphatase inhibitor cocktail (Thermo). Lysates were transferred to and incubated overnight at 4° C. with shaking in QuickPlex 96-well high bind assay plates (MSD) pre-coated overnight with 30 μL per well of 0.6 μg/mL mouse monoclonal anti-STAT3 antibody (STAT3) or 2 μg/mL mouse monoclonal anti-STAT6 antibody (STAT6) in 1×PBS, and pre-blocked for 1 hour with 3% Blocker-A (MSD). Captured protein in the assay plates were then washed and probed with 25 μL per well of 0.25 μg/ml rabbit monoclonal anti-pY705-STAT3 antibody (STAT3) or 0.18 μg/ml rabbit monoclonal Anti-pY641-STAT6 antibody (STAT6) in 1% Blocker-A for 1 hour at room temperature with shaking, then washed and probed with 25 ul per well of 1 ug/ml Sulfo-TAG Labeled Goat Anti-Rabbit Antibody (MSD) in 1% Blocker-A for 1 hour at room temperature with shaking. Assay plates were then washed and 150 μL of 1× Read Buffer-T (MSD) was added to each well prior to reading on an SQ120 MSD Plate Reader. Assay signal from each sample was subtracted by the signal from unstimulated control wells and normalized to DMSO control wells. IC50 values were calculated using Graph Pad Prism Dose-Response Nonlinear Regression with variable slope. For both pSTAT3 and pSTAT6 A=≤100 nM; B=>100-1000 nM; C=>1000-3000 nM; and D=>3 μM.

[4] = biological target: T4, pSTAT6 (Homo sapiens, UniProt P42226); assay: MSD-pSTAT-PBMC Assay, pSTAT6 (IL-4 stimulated PBMC); type: cell-based
T4 construct: pY641-STAT6 MSD read-out
T4 sequence (P42226 1-847): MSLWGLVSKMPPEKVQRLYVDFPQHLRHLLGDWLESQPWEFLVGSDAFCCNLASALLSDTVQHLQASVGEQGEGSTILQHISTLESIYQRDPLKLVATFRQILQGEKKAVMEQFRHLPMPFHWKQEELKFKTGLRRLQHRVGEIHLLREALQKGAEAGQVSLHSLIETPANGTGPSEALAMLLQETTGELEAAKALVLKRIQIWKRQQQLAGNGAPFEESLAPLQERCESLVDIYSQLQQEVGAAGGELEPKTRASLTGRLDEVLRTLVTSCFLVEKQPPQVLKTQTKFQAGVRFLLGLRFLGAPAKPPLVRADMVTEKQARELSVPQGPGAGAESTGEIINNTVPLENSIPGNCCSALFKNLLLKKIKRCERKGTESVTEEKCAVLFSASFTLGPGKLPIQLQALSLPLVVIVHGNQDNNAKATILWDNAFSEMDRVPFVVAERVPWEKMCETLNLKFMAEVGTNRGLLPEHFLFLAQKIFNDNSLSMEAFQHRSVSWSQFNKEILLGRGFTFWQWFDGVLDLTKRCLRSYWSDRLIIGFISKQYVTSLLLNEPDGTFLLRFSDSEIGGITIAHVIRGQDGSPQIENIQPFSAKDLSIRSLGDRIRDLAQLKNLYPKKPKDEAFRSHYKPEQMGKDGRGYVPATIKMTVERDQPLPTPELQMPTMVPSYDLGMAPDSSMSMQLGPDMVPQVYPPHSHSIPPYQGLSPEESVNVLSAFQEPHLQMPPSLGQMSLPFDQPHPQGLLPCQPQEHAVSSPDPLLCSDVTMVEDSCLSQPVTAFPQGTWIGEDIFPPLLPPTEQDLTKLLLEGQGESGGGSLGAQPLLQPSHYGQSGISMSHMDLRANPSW
Summary of the method: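 Human PBMC were recovered overnight, treated 3 h with compound, then stimulated for 10 min with 10 ng/mL IL-6 (pSTAT3) or 1 ng/mL IL-4 (pSTAT6). Lysates were read by MSD sandwich immunoassay, with total STAT capture and pY705-STAT3 or pY641-STAT6 detection. Signal minus unstimulated wells was normalized to DMSO, and IC50 came from a variable-slope fit.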

[5] = read-out: pSTAT3 IC50, compound 3 hrs, then 10 ng/mL IL-6 for 10 min, pY705-STAT3
[6] = read-out: pSTAT6 IC50, compound 3 hrs, then 1 ng/mL IL-4 for 10 min, pY641-STAT6
[7] = recombinant STAT3 25 nM, probe 5-FAM-GpYLPQTV-NH2 2 nM, 45 min, room temperature, read-out: STAT3 FP IC50
[8] = recombinant STAT6(W123-T658) 250 nM, probe 5-FAM-Ap[…]-NH2 2 nM, 45 min, room temperature, read-out: STAT6 FP IC50
[9] = compound 3 hrs, then 10 ng/mL IL-6 for 10 min, pY705-STAT3, read-out: pSTAT3 IC50
[10] = compound 3 hrs, then 1 ng/mL IL-4 for 10 min, pY641-STAT6, read-out: pSTAT6 IC50

T3 sequence (P40763 whole entry): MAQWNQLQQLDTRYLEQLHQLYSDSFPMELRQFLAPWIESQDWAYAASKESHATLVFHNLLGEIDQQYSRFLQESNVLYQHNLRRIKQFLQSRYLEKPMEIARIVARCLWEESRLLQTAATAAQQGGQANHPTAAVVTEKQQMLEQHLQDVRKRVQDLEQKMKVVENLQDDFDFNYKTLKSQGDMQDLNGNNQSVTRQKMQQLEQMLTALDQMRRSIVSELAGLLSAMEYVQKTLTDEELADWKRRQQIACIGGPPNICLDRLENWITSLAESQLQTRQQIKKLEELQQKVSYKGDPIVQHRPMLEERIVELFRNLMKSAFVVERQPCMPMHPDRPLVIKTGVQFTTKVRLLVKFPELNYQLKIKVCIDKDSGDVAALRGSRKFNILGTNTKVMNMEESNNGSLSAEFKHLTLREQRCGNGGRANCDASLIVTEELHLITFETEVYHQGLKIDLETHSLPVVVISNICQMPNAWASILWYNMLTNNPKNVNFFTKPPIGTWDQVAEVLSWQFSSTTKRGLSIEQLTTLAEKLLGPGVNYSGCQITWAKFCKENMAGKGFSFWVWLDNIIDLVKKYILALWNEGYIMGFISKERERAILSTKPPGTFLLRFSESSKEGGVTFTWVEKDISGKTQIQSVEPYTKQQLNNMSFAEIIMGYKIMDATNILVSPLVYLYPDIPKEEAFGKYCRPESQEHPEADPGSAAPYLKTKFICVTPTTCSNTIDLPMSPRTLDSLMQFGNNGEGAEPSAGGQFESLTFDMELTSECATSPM
T1 sequence (P40763 127-722 limits assumed): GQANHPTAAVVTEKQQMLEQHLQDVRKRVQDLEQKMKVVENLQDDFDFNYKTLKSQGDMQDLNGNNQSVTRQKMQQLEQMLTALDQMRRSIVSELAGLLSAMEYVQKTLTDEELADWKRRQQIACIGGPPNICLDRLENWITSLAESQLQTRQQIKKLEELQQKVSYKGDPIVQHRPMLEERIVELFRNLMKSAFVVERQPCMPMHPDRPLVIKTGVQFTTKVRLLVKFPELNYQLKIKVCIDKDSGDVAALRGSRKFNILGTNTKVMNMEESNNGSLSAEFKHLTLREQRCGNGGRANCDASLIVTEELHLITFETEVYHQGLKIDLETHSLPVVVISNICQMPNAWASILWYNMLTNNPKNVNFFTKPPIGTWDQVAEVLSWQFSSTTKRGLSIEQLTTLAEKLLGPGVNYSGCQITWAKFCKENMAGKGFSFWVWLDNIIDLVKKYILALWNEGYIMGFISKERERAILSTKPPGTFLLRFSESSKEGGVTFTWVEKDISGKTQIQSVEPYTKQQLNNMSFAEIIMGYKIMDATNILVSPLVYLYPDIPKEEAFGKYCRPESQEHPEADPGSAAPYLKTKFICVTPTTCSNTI

IC50 [1, 7] [µM] | IC50 [2, 8] [µM] | IC50 [3, 9] [µM] | IC50 [4, 10] [µM] | SMILES | IC50 [1] [µM] | IC50 [2] [µM] | IC50 [3, 5] [µM] | IC50 [4, 6] [µM]
– | – | – | – | CN(C(=O)[C@@H]1CC[C@@H]2CCN(C(=O)CCCCCC#Cc3cccc4c3CN(C3CCC(=O)NC3=O)C4=O)C[C@H](NC(=O)c3cc4cc(C(F)(F)P(=O)(O)O)ccc4[nH]3)C(=O)N21)c1ccccc1 (stereo partly drawn) [Compound 1, [(2-{[(5S,8S,10aR)-3-{8-[2-(2,6-dioxopiperidin-3-yl)-1-oxo-2,3-dihydro-1H-isoindol-4-yl]oct-7-ynoyl}-8-[methyl(phenyl)carbamoyl]-6-oxo-decahydropyrrolo[1,2-a][1,5]diazocin-5-yl]carbamoyl}-1H-indol-5-yl)difluoromethyl]phosphonic acid] | 1 to 10 | 0.3 to 3 | > 3 | > 3
– | – | – | – | CC(=O)N1CC[C@H]2CC[C@@H](C(=O)Nc3ccc(-c4ccc(NC(=O)CCCCCC#Cc5cccc6c5CN(C5CCC(=O)NC5=O)C6=O)cc4)cc3)N2C(=O)[C@@H](NC(=O)c2cc3cc(C(F)(F)P(=O)(O)O)ccc3[nH]2)C1 (stereo partly drawn) [Compound 3, ((2-(((5S,8S,10aR)-3-acetyl-8-((4′-(8-(2-(2,6-dioxopiperidin-3-yl)-1-oxoisoindolin-4-yl)oct-7-ynamido)-[1,1′-biphenyl]-4-yl)carbamoyl)-6-oxodecahydropyrrolo[1,2-a][1,5]diazocin-5-yl)carbamoyl)-1H-indol-5-yl)difluoromethyl)phosphonic acid] | 0.1 to 1 | 0.3 to 3 | > 3 | > 3
< 0.1 | 3 to 30 | > 3 | > 3 | O=C1CCC(N2Cc3c(C#CCCCCCC(=O)N4CC[C@H]5CC[C@@H](C(=O)N6CC(c7cccnc7)C6)N5C(=O)[C@@H](NC(=O)c5cc6cc(C(F)(F)P(=O)(O)O)ccc6s5)C4)cccc3C2=O)C(=O)N1 (stereo partly drawn) [Compound 5, ((2-(((5S,8S,10aR)-3-(8-(2-(2,6-dioxopiperidin-3-yl)-1-oxoisoindolin-4-yl)oct-7-ynoyl)-6-oxo-8-(3-(pyridin-3-yl)azetidine-1-carbonyl)decahydropyrrolo[1,2-a][1,5]diazocin-5-yl)carbamoyl)benzo[b]thiophen-5-yl)difluoromethyl)phosphonic acid] | – | – | – | –
1 to 10 | < 0.3 | > 3 | 1 to 3 | N#CC1CN(C(=O)C2CCC3CCN(C(=O)CCCCCC#Cc4cccc5c4CN(C4CCC(=O)NC4=O)C5=O)CC(NC(=O)c4cc5cc(C(F)(F)P(=O)(O)O)ccc5s4)C(=O)N32)CC1c1ccccc1 [Compound 6, ((2-(((5S,8S,10aR)-8-((rel-3S,4R)-3-cyano-4-phenylpyrrolidine-1-carbonyl)-3-(8-(2-(2,6-dioxopiperidin-3-yl)-1-oxoisoindolin-4-yl)oct-7-ynoyl)-6-oxodecahydropyrrolo[1,2-a][1,5]diazocin-5-yl)carbamoyl)benzo[b]thiophen-5-yl)difluoromethyl)phosphonic acid] | – | – | – | –
– | – | – | – | Cc1ccc2[nH]nc(C(=O)N3CC[C@H]4CC[C@@H](C(=O)NCCCCCCCCC(=O)N[C@H](C(=O)N5C[C@H](O)C[C@H]5C(=O)N[C@@H](C)c5ccc(-c6scnc6C)cc5)C(C)(C)C)N4C(=O)[C@@H](NC(=O)c4ccc5ccc(C(F)(F)P(=O)(O)O)cc5c4)C3)c2c1 [Compound 7] | 1 to 10 | < 0.3 | > 3 | > 3
– | – | – | – | Cc1ccc2[nH]nc(C(=O)N3CC[C@H]4CC[C@@H](C(=O)NCCCCCCC#Cc5cccc6c5CN(C5CCC(=O)NC5=O)C6=O)N4C(=O)[C@@H](NC(=O)c4ccc5ccc(C(F)(F)P(=O)(O)O)cc5c4)C3)c2c1 (stereo partly drawn) [Compound 9, ((7-(((5S,8S,10aR)-8-((8-(2-(2,6-dioxopiperidin-3-yl)-1-oxoisoindolin-4-yl)oct-7-yn-1-yl)carbamoyl)-3-(5-methyl-1H-indazole-3-carbonyl)-6-oxodecahydropyrrolo[1,2-a][1,5]diazocin-5-yl)carbamoyl)naphthalen-2-yl)difluoromethyl)phosphonic acid] | 1 to 10 | < 0.3 | > 3 | 1 to 3
